Laboratory results reported in publication PMC8894159, “Paltusotine, a novel oral once-daily nonpeptide SST2 receptor agonist, suppresses GH and IGF-1 in healthy volunteers” (Pituitary, 2022).
Where two headings read alike, the source gives them in different places.

Experiment: Single ascending dose plasma pharmacokinetics in healthy volunteers
Assay type: in vivo
Details: human
Description: In the single-dose phase, participants were randomized 6:2 to paltusotine (1.25, 2.5, 5, 10, 20, 40, and 60 mg) or placebo in 7 cohorts (S1 to S7). Cohorts comparing oral bioavailability of solution versus capsules and the effect of a standardized high-fat, high-calorie breakfast on oral bioavailability of the capsule formulation employed the 10 mg dose level. In the multiple-dose phase, participants were randomized 6:3 to once-daily oral paltusotine capsules or placebo at doses of 5 mg for 7 days (M1, Day Last = Day 7), and 10, 20, and 30 mg daily for 10 days (M2, M3, M4, Day Last = Day 10). The initial starting dose of 1.25 mg in the single-dose phase was selected for this study based on nonclinical pharmacologic activity, pharmacokinetics, and safety studies. Subsequent doses were either specified in the protocol or were selected by the safety review committee responsible for the safety oversight of the study.
Single-dose cohorts: Plasma samples were collected on Day 1 (pre-dose, every 15 min up to 90 min post-dose, then at 2, 3, 4, 6, 8, 10, 12, 18, 24, 48, 72, 96, 120, and 144 h post-dose). Multiple-dose cohorts: For the 5 mg cohort, plasma samples were collected on Day 1 (pre-dose, every 15 min up to 90 min post-dose, then at 2, 3, 4, 6, 8, 10, 12, and 18 h post-dose), Days 2–6 (pre-dose and 2 h post-dose), Day 7 (same time points as Day 1, followed by samples at 18, 24, 48, 72, 96, 120, and 144 h post-dose). For all other multiple-dose cohorts, plasma samples were collected on Day 1 (pre-dose, every 15 min up to 90 min post-dose, then at 2, 3, 4, 6, 8, 10, 12, and 18 h post-dose), Days […] (same time points as Day 1, followed by samples at 18, 24, 48, 72, 96, 120, 144, 192, and 240 h post-dose).
Plasma pharmacokinetic sample analysis for paltusotine was determined using validated procedures by CPR Pharma Services (Thebarton, Australia). Briefly, plasma paltusotine concentrations were determined by high-pressure liquid chromatography (HPLC) coupled with tandem mass spectrometry detection (MS/MS). Deuterated paltusotine was used as an internal standard. Supported liquid extraction was used to extract paltusotine and the internal standard. The analyte was separated by HPLC using an ACE C18-AR column (Advanced Chromatography Technologies, Ltd, Aberdeen, Scotland), and the eluates were monitored by an API 4000™ LC–MS/MS System (Sciex, Framingham, MA) in positive multiple reaction monitoring mode. The extract was then assayed against a calibration curve. The data were acquired and integrated by the data acquisition software Analyst® (Sciex), linked directly to the API 4000™ LC–MS/MS System, and then processed using Watson LIMS™ software (Thermo Scientific, Waltham, MA), where applicable. The calibration range was 0.100 to 100 ng/mL using 100 μL of plasma, with a lower limit of quantification of 0.100 ng/mL. The inter-assay accuracy was 94% to 100%, and the inter-assay precision (% CV) was between 6.1% and 15%.
For assessing pharmacokinetics of paltusotine, the single-dose pharmacokinetic population included all randomized participants who received any amount of study drug with sufficient plasma concentration data. For the multiple-dose cohorts, only participants who received all doses were included. The relative bioavailability of the capsule formulation was determined by comparing its pharmacokinetic parameters with those of the solution formulation at the 10 mg dose. Food effect was determined at the same dose by comparing pharmacokinetic parameters in the fasting state to those when paltusotine was administered with a high-fat, high-calorie meal. For both formulation and food effect, ANOVA with treatment as a fixed effect and subject as a random effect was performed. Data for peak concentration (Cmax), AUC0-last, and AUC0-inf were natural log-transformed.

[1] = oral, single dose 40 mg capsules, fasted, mean ± SD
[2] = oral, single dose 60 mg capsules, fasted, mean ± SD
[3] = single dose 1.25 mg oral solution, fasted, mean ± SD
[4] = single dose 2.5 mg oral solution, fasted, mean ± SD
[5] = single dose 5 mg oral solution, fasted, mean ± SD
[6] = single dose 10 mg oral solution, fasted, mean ± SD
[7] = single dose 20 mg oral solution, fasted, mean ± SD

Cl.N#Cc1cccc(-c2ccc3ncc(-c4cc(F)cc(F)c4)c(N4CCC(N)CC4)c3c2)c1O [paltusotine, 3-[4-(4-Aminopiperidin-1-yl)-3-(3,5-difluorophenyl)quinolin-6-yl]-2-hydroxybenzonitrile hydrochloride]
half-life (oral, overall summary (abstract), read-out: half-life of elimination (converted)): ~30 h
half-life (oral, sampling up to 144 h post-dose (single-dose cohorts and 5 mg multiple-dose cohort), range, read-out: t1/2 (converted)): 22 to 34 h
AUC(0-inf) [1]: 2650 ± 1200 ng·h/mL
Cmax [1]: 185 ± 118 ng/mL
Tmax (oral, single dose 40 mg capsules, fasted, mean ± SD, read-out: Tmax): 3.4 ± 1.1 h
half-life (oral, single dose 40 mg capsules, fasted, mean ± SD, read-out: t1/2 (converted)): 27 ± 3.1 h
AUC(0-inf) [2]: 2300 ± 1060 ng·h/mL
Cmax [2]: 154 ± 77.6 ng/mL
Tmax (oral, single dose 60 mg capsules, fasted, mean ± SD, read-out: Tmax): 3 ± 1.2 h
half-life (oral, single dose 60 mg capsules, fasted, mean ± SD, read-out: t1/2 (converted)): 25 ± 2.1 h
AUC(0-inf) [3]: 122 ± 25.7 ng·h/mL
Cmax [3]: 9.81 ± 1.56 ng/mL
Tmax (single dose 1.25 mg oral solution, fasted, mean ± SD, read-out: Tmax): 1.3 ± 0.44 h
half-life (single dose 1.25 mg oral solution, fasted, mean ± SD, read-out: t1/2 (converted)): 22 ± 5.5 h
AUC(0-inf) [4]: 320 ± 66.3 ng·h/mL
Cmax [4]: 22.7 ± 4.74 ng/mL
Tmax (single dose 2.5 mg oral solution, fasted, mean ± SD, read-out: Tmax): 1.6 ± 0.8 h
half-life (single dose 2.5 mg oral solution, fasted, mean ± SD, read-out: t1/2 (converted)): 29 ± 9 h
AUC(0-inf) [5]: 590 ± 93.7 ng·h/mL
Cmax [5]: 48.1 ± 7.05 ng/mL
Tmax (single dose 5 mg oral solution, fasted, mean ± SD, read-out: Tmax): 1.3 ± 0.41 h
half-life (single dose 5 mg oral solution, fasted, mean ± SD, read-out: t1/2 (converted)): 25 ± 9.4 h
AUC(0-inf) [6]: 1650 ± 464 ng·h/mL
Cmax [6]: 95.2 ± 19.3 ng/mL
Tmax (single dose 10 mg oral solution, fasted, mean ± SD, read-out: Tmax): 2.2 ± 1.3 h
half-life (single dose 10 mg oral solution, fasted, mean ± SD, read-out: t1/2 (converted)): 29 ± 4.3 h
AUC(0-inf) [7]: 2960 ± 963 ng·h/mL
Cmax [7]: 167 ± 29.1 ng/mL
Tmax (single dose 20 mg oral solution, fasted, mean ± SD, read-out: Tmax): 1.9 ± 1 h
half-life (single dose 20 mg oral solution, fasted, mean ± SD, read-out: t1/2 (converted)): 29 ± 5 h
Tmax (single-dose oral solution, fasted, range across 1.25-20 mg, read-out: Tmax (time of median peak concentrations)): 1.3 to 2.2 h
half-life (single-dose oral solution, fasted, range across 1.25-20 mg, read-out: apparent terminal elimination t1/2): 22 to 29 h
